Laboratory results published in patent US20030186943A1, “Substituted gamma-phenyl-delta-lactams and uses related thereto” (Inflazyme Pharmaceuticals Ltd., priority 1998, published 2003).
Several values for one entry are separate records, joined by “and”; a condition that tells them apart may be missing. Equal entries are not always repeated.

Key:
[1] = tested on: tail skin allograft rejection (C57BL/6 donor, BALB/c recipient mice); assay: Murine tail skin allograft transplantation model; format: in vivo, mouse; settings: 10 mg/kg i.p. twice daily
Procedure: Tail skin from donor H-2 b C57BL/6 mice was transplanted onto recipient female H-2^d BALB/c mice (Lagodzinski, Z. et al., Immunology 71:148-150 (1990)). Five mice were included per group. […] Test compounds and CsA were administered twice daily intraperitoneally at a dose of 10 mg/kg beginning at one day prior to transplantation and for 15 days after transplantation, including the day of transplantation. Mice were monitored and scored daily over 15 days post transplantation for graft rejection.
Skin allograft rejection is primarily mediated by T lymphocytes with little evidence for a major role of antibodies under most circumstances. Skin allograft rejection requires the activation of helper and cytotoxic effector T cell populations. Graft rejection was assessed by monitoring allograft necrosis. Because tail skin is visibly distinct from the surrounding trunk skin of the mouse, the course of rejection can be easily monitored. Fully intact grafts were scored as 100%. Complete graft rejection was defined as >90% graft necrosis. Acute graft rejection generally proceeds via a series of visually obvious events beginning with swelling and erythema of the graft. These events are followed by graft desiccation and scab formation over most or all of the graft, signaling the loss of the viable graft tissue. Scab formation is subsequently followed by shrinkage and scar formation.

[2] = tested on: IL-2 production in concanavalin A stimulated primary human CD4+ T-cells; assay: IL-2 production (Th1 profile) in concanavalin A stimulated primary human CD4+ T-cells; format: cell-based
Excerpt: (§1) The assay on the primary human T-cells involves their activation by concanavalin A (conA); (Sigma, Catalogue No. C 5275), followed by ELISA detection for cytokines for either profile. In the case of Th1-profiles, IL-2 and INF-γ are used as benchmarks while IL-10 is the indicator for a Th2-profile. Biologically, these indicators are useful in that IL-2 is the major T-cell mitogen while IL-10 represents a powerful yet selective immunosuppressive agent.
(§2) Approximately 60 cc of whole human blood was collected into ACD anti-coagulant vacutainer tubes. 15 mL Ficoll Paque 1077 was aliquoted into 6 sterile 50 mL conical tubes. 10 mL of blood was slowly layered on top of the Ficoll Paque by holding the tube upright and resting the pipette tip at the inside edge of the tube and allowing the blood to slowly run down the side of the tube. Tubes were spun at 1700 rpm for 30 minutes at room temperature. The plasma layer above the leukocyte band was aspirated off and a pasteur pipette was used to lift off the leukocyte band and transfer it to a sterile 50 mL conical tube. Cells from each leukocyte gradiant tube were transferred to a separate 50 mL conical tube. Sterile PBS pH 7.4 was added to each 50 mL conical tube containing cells from leukocyte band to a volume of 50 mL. Tubes were spun at 1100 rpm for 10 minutes. Supernatant was aspirated off and the cells were resuspended in 50 mL PBS pH 7.4. Tubes were re-centrifuged at 1100 rpm for 10 minutes. Supernatant was aspirated off and the cells were resuspended in appropriate medium at a density of 5×10^7 cells/mL or 2×10^6 cells/mL.
(§3) CD 4+T-cell Preparation: Cells from Leukocyte preparation were resuspended in sterile PBS pH 7.4 supplemented with 2-6% Fetal Bovine Serum (FBS) at a density of 5×10^7 cells/mL. Cells were then ready for isolation.
(§4) 100 μL of antibody cocktail (Stem Cell Technologies, Catalogue No. 14062) was added for each mL of cells and mixed well. Cells+Ab cocktail was incubated on ice for 30 minutes. After 30 minute incubation, 60 μL of magnetic colloid was added for each mL of cells, and mixed well. Cells+Ab cocktail+magnetic colloid were incubated on ice for 30 minutes. After a final 30 minute incubation cells were ready for magnetic cell separation.
(§5) Sample was loaded into the top of a column. The stopcock was turned to allow the flow of media down through the column, and the media was collected into a collection tube. PBS supplemented with 2-6% FBS was added to the column until three column volumes had been collected (not including the volume of the start sample). Cells were washed, counted, and resuspended in RPMI 1640 with 10% FBS+2 mM L-glutamine at a density of 1×10^6 cells/mL.
(§6) CD4+ T-cells were isolated as described above. Cells were suspended in RPMI 1640 media (Stem Cell Technologies Inc.; Catalogue No. 36750) with 10% FBS+2 mM L-glutamine at a density of 1×10^6 cells/mL. Cells were maintained on ice as test compounds were prepared. Test compounds were prepared in a sterile 96-well assay plate at 50×the final desired test concentration, all wells contained an equal amount of dimethylsulfoxide vehicle. 500 μL of CD4^+ T-cells were added to each well of 24-well assay plate. 10 μL of each test compound working solution was added to the appropriate wells; two wells were left as stimulated and non-stimulated controls. 10 μL of concanavalin A (50×the final concentration) at 10 μg/mL was added to each well with the exception of the non-stimulated control wells. Cells were incubated at 37° C. for 48 hours. Conditioned media is then assessed by ELISA for the quantity of IL-2, […], TNFα and IL-10 present.
(§7) Tables 5A, 5B and 5C represent a synopsis of data across individuals with respects to the potency of compounds of the invention in their ability to inhibit cytokines that are likely to promote or depress a Th1 or Th2 response. […]

Th1 cells = assay: Proliferation of differentiated Th1 CD4+ T cells; format: cell-based, mouse; settings: CD4+ T cells already differentiated into Th1 phenotype
Procedure: The differentiation of naive CD4 T cells toward Th1 and Th2 lineages was performed as follows: 1×10^5 AND-lymph node T cells were cultured with […] B10.BR irradiated spleen cells in 2 ml of culture media with the following supplements: for Th1 cell differentiation, 100 U/mL IFNγ, 25U/mL IL2 and 10 ug/mL anti-IL4; for Th2 cell differentiation, 150 U/mL IL4, 25 U/mL IL2 and 10 ug/mL anti-IFNγ. After 3-4 days the wells were split 1:4 with the same additions. After 7 days the cells were harvested and washed 3 times to remove cytokines in the supernatents. 1×10^5 cultured cells were restimulated with 5×10^5 irradiated B10BR spleen cells +5 μM pcc peptide in 250 μl culture media without any added cytokines. The supernatents were harvested after 40 hrs and assessed for IL2, IL4 and IFNγ by ELISA. Test compounds were added throughout the differentiation of the culture.
Cultured Th1 and Th2 cells generated in the absence of test compounds were tested for proliferation and cytokine activity as described above during antigen stimulation in the presence of compound.

CD8+ T-cells = assay: CD8+ T-cell proliferation (2C-TCR transgenic); format: cell-based, mouse; settings: at 5 μM
Excerpt: 2C-TCR transgenic mice (Sha W. C. et al., Nature 335:271-274, 1988) were used to provide a source of naive antigen specific CD8+T cells. The 2C-T cell antigen receptor recognizes the 2C peptide derived from the mitochondrial alpha-ketoglutarate dehydrogenase enzyme in the context of the Db class I MHC molecule.
To test the efficacy of a test compound in naive CD8+ T cell activation and proliferation, single cell suspensions of 2C lymph node (LN) T cells were isolated from 2C-TCR transgenic mice. 2C-T cells were stimulated with irradiated TAP−/− H-2d splenocytes or L^d transfected TAP−/− T2 cell line in the presence of varying concentrations of 2C peptide (0-10 uM). Proliferation was assessed by ^3H thymidine incorporation. Cell surface activation phenotype of T cells was performed by flow cytometric analysis

[3] = tested on: High Affinity Rolipram Binding Site of PDE4 in Mouse Brain; assay: Displacement of [3H]-rolipram from its high affinity binding site (HARBS); settings: ratio of IC50 for PDE4 catalytic activity to concentration displacing 50% of rolipram from HARBS
[4] = tested on: TNBS-induced colitis in the rat; assay: TNBS-induced colitis model of inflammatory bowel disease in the rat;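 further: rat colitis induced by intracolonic TNBS in 50% ethanol, distal colon assessed at sacrifice on day 7, with saline-instilled vehicle-treated rats as controls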
Procedure: Colitis was induced by intracolonic instillation of the hapten TNBS (60 mg/mL) in 0.5 mL of 50% ethanol. […] An additional group of rats received saline intracolonically in place of TNBS/ethanol and was treated with vehicle at the same times as outlined above. Body weights were recorded at the beginning of the study and at days 2 and 7.
The rats were sacrificed on the 7th day after the induction of colitis and the extent of damage and inflammation was assessed. After the rats were sacrificed, the distal colon was removed and pinned out on a wax platform. The presence or absence of diarrhea was noted, as well as the presence and severity of adhesions between the colon and other organs, and the severity and extent of colonic damage. […] After scoring, a sample of colonic tissue was excised for measurement of myeloperoxidase activity as an index of granulocyte infiltration (see Wallace et al., Gastroenterology 117: in press, 1999; and Morris et al., Gastroenterology 96:795-803, 1989). This tissue sample was 1 cm long (along the axis of the colon) and 5 mm wide and was taken from a region of macroscopically visible damage (or the corresponding region in any rats in which there was no damage). The remainder of the tissue was fixed in neutral buffered formalin and processed by routine methods for subsequent evaluation by light microscopy. In a blinded manner, the sample of colonic tissue from each rat was examined for evidence of mucosal ulceration and inflammation. The percentage of the luminal surface of the section in which ulceration was present was calculated.

[5] = tested on: TNBS-induced colitis in the rat; settings: dose reduced to 50 mg/kg; cited from earlier work
[6] = tested on: High Affinity Rolipram Binding Site of PDE4 in Mouse Brain; settings: values reported for second-generation PDE4 inhibitors; cited from earlier work
[7] = tested on: IL-10 production in concanavalin A stimulated primary human CD4+ T-cells; assay: IL-10 production (Th2 profile) in concanavalin A stimulated primary human CD4+ T-cells; format: cell-based; settings: T-cell, 10 μg/mL Concanavalin A, 48 hours, X marks this range, read-out: IL-10 IC50 RANGE (μM) 0.02-0.2
Excerpt: as §1, §2, §3, §4, §5, §6, §7

[8] = tested on: IFN-gamma production in concanavalin A stimulated primary human CD4+ T-cells; assay: IFN-gamma production (Th1 profile) in concanavalin A stimulated primary human CD4+ T-cells; format: cell-based; settings: T-cell, 10 μg/mL Concanavalin A, 48 hours, X marks this range, read-out: INF-GAMMA IC50 RANGE (μM) 0.2-2.0
Excerpt: as §1, §2, §3, §4, §5, §6, §7

[9] = tested on: K562 chronic myelogenous leukemia cells; assay: Anti-proliferative activity in K562 cells (3H-thymidine uptake); format: cell-based, human; settings: Homo sapiens; K562, 48 hours, 3H-thymidine; X marks this range; read-out: IC50 range (μM) >50
Procedure: 90 μL K562 cells (human chronic myelogenous leukemia cells) were seeded into sterile 96-well assay plates at a density of 1×10^5 cells/mL in RPMI 1640 supplemented with 10% FBS/2 mM L-glutamine. Samples to be tested were prepared in a sterile 96-well assay plate at 10×the final concentration desired. All sample dilutions contained equal amounts of DMSO to compensate for the % DMSO in the highest sample concentration used. Nine concentrations of test compound were examined for effects on growth up to a maximal concentration of 100 μM. 10 μL of the samples and controls (DMSO/normal growth control) were added to the aliquoted cells. The cells were incubated at 37° C./5% CO2 for 48 hours. Following 48 hour incubation, 20 μL of 3H-thymidine was added to each well for a final concentration of 1 μCi/mL. The cells were then incubated at 37° C./5% CO2 for 4 to 6 hours. Following 4-6 hour thymidine pulse, plates were wrapped in plastic and frozen in a −20° C. frost-free freezer overnight. Cells were harvested and ^3H-thymidine counts determined. In order to distinguish between cytotoxicity and cytostatic activity, growth curves were prepared where the average CPM value of the seeding density of cells was plotted on the same curve as the average CPM value for the maximum proliferation attained after 48 hours (DMSO growth control cells). The cells were diluted 1:2 for a concentration range of 7.8×10^3 cells/mL to 2×10^6 cells/mL. 90 μL of each cell dilution was seeded in sterile 96-well assay plated and allowed to equilibrate for approximately 4 hours at 37° C./5% CO2 prior to ^3H-thymidine pulse. The data in Table 15 was obtained as described above, and more specifically, K562 cells were seeded into 96-well plates at 1×10^5 cells/mL in RPMI 1640 supplemented with 10% FBS/2 mM L-glutamine. Various concentrations of test compound or vehicle (DMSO) was added and the cells were incubated at 37° C./5 CO2 for 48 hours. The cells were then pulsed at 37° C./5% CO2 for 4 to 6 hours with 1 μCi/mL ^3H-thymidine. Radioactivity incorporated into DNA was determined after harvesting onto glass fiber filters and scintillation counting.

[10] = tested on: TNF-α production in concanavalin-A stimulated primary human CD4+ T-lymphocytes; assay: TNF-α production in Con-A stimulated human CD4+ T-cells (ELISA); format: cell-based; settings: T-lymphocyte, X marks this range, read-out: TNF-alpha IC50 RANGE (μM) <2
Procedure: Activated T-lymphocytes are known to produce TNF-α and may constitute a significant source of this important inflammatory mediator in localized regions of inflammation such as the rheumatoid synovium or psoriatic lesions. Supernatants from cona-stimulated primary human CD4+ T-cells that had been incubated in the presence or absence of a test compound were analyzed for TNF-α using an ELISA system. (Pharingen; recommended anti-TNF antibody set 18631-D and 18642-D). Substantial quantities of TNF-α were induced in vehicle treated T-cells stimulated with conA. […] This may be due to the differing sensitivity of monocyte/macrophages versus T-lymphocytes to elevations in intracellular cAMP with respect to regulatory pathways impacting TNF-α production.
as §2, §3, §4, §5, §6

[11] = 100 mg/kg intracolonically at 12 h intervals for one week
[12] = 100 mg/kg intracolonically at 12 h intervals for one week, day 7

## COc1ccc([C@H]2COC(=O)C(Cc3ccc(OC4CCCC4)c(OC)c3)C2)cc1OC (some centres unmarked) [Compound 136]
[1]; from one day prior to and for 15 days after transplantation
  Average graft survival: 15.4 days and 15.4 ± 1.3 days
[1]; 9 days post-transplant
  Allograft survival rate (% at 9 days post-transplant): 100%
[1]; five mice per group
  # grafts surviving beyond 16 days p.t.: 3
[2]; conA stimulated CD4+ selected cells
  Th1 versus Th2 cytokine profile: selective inhibition of a Th1 profile
Th1 cells
  inhibition of Th1 cells: approx. 30%
CD8+ T-cells
  inhibition of CD8+ T-cell proliferation: approx. 40%
[3]
  PDE4:HARBS: <1

## Nc1ccc(O)c(C(=O)OCCCCO[N+](=O)[O-])c1 [NCX-456]
[4]; [11]
  Body Weight Change (%): −5.7 ± 0.3%
  Mortality: 1/8
[4]; [12]
  Adhesion (Incidence): (2/7)^ζ
  Adhesion Score: 0.4 ± 0.3
  Bowel Thickness (mm): 2.02 ± 0.42 mm
  Damage Score: 3.7 ± 0.9
  Global Colitis Score: 6.60 ± 1.67
[4]; 100 mg/kg, one week
  reduction in the colonic damage score: 50%
[4]; colonic tissue, 100 mg/kg intracolonically at 12 h intervals for one week, day 7
  MPO Activity (U/mg): 57.8 ± 11.6 U/mg
[4]; incidence, 100 mg/kg intracolonically at 12 h intervals for one week, day 7
  Diarrhea: 3/7
[4]; percentage of luminal surface ulcerated, 100 mg/kg intracolonically for one week, day 7
  Histology Score: 46.4 ± 4.1
[5]
  therapeutic effects in TNBS model at reduced dose: lost

## COc1ccc(C(=O)Nc2c(Cl)cncc2Cl)cc1OC1CCCC1 [RP 73401]
[6]
  ratio of IC50's for PDE4catalytic to PDE4HARBS (reported): 3

## COc1ccc([C@]2(C#N)CC[C@@H](C(=O)O)CC2)cc1OC1CCCC1 [SB 207499]
[6]
  ratio of IC50's for PDE4catalytic to PDE4HARBS (reported): 1

## COc1cc(-c2ccc(=O)[nH]n2)ccc1OC(F)F [Zardaverine, reference compound]
[7]
  IC50: 0.02 to 0.2 µM
[8]
  IC50: 0.2 to 2 µM
[2]; Homo sapiens, T-cell, 10 μg/mL Concanavalin A, 48 hours, X marks this range, read-out: IL-2 IC50 RANGE (μM) 0.2-2.0
  IC50: 0.2 to 2 µM
[9]
  IC50: > 50 µM
[10]
  IC50: < 2 µM
